Test results as given in ChEMBL document CHEMBL5233219, “Diarylamides in anticancer drug discovery: A review of pre-clinical and clinical investigations” (Eur J Med Chem, 2020).
Blank lines part the entries; values can stand above or below the compound they belong to.

Legend:
SK-OV-3 [1] = test: Antiproliferative activity against human SK-OV-3 cells assessed as inhibition of cell growth; type: functional, cell-based
HS27 = test: Cytotoxicity against human HS27 cells; type: functional, cell-based
IGROV-1 = test: Antiproliferative activity against human IGROV-1 cells assessed as inhibition of cell growth relative to control; type: functional; set-up: scale not given: the % may be the effect or the level left
SK-OV-3 [2] = test: Antiproliferative activity against human SK-OV-3 cells assessed as inhibition of cell growth relative to control; type: functional; set-up: scale not given: the % may be the effect or the level left
[3] = biological target: T1, Macrophage colony-stimulating factor 1 receptor (Homo sapiens, UniProt P07333); test: Inhibition of FMS (unknown origin)
[4] = biological target: T1, Macrophage colony-stimulating factor 1 receptor; test: Inhibition of FMS (unknown origin) relative to control; settings: concentration not given here
OVCAR-3 = test: Antiproliferative activity against human OVCAR-3 cells assessed as inhibition of cell growth; type: functional, cell-based
DU-145 = test: Antiproliferative activity against human DU-145 cells assessed as inhibition of cell growth; type: functional, cell-based
Macrophage = test: Cytotoxicity against human Macrophage cells relative to control; type: functional
T47D = test: Antiproliferative activity against human T47D cells assessed as inhibition of cell growth relative to control; type: functional; set-up: scale not given: the % may be the effect or the level left
[5] = Cytotoxicity against human A375P cells; type: functional, cell-based
[6] = Antiproliferative activity against human A375P cells; type: functional, cell-based
[7] = Cytotoxicity against human HUVEC cells; type: toxicity, cell-based
[8] = system: Panel NCI-60 (60 carcinoma cell lines); test: Antiproliferative activity against human Panel NCI-60 (60 carcinoma cell lines) assessed as reduction in cell viability; type: functional
OVCAR-5 = test: Antiproliferative activity against human OVCAR-5 cells assessed as reduction in cell viability; type: functional, cell-based
MOLT-4 = test: Anticancer activity against human MOLT-4 cells assessed as inhibition of cell growth; type: functional; set-up: scale not given: the % may be the effect or the level left
MCF7 = test: Anticancer activity against human MCF7 cells assessed as inhibition of cell growth; type: functional; set-up: scale not given: the % may be the effect or the level left
MDA-MB-468 = test: Anticancer activity against human MDA-MB-468 cells assessed as inhibition of cell growth; type: functional; set-up: scale not given: the % may be the effect or the level left
[9] = Antiproliferative activity against human OVCAR assessed as reduction in cell viability; type: functional, cell-based
[10] = system: Panel NCI-60 (60 carcinoma cell lines); test: Antiproliferative activity against human Panel NCI-60 (60 carcinoma cell lines) assessed as reduction in cell viability at 10 uM; type: functional
[11] = Antitumor activity against human OVCAR cells implanted in mouse assessed as tumor growth inhibition; type: functional
[12] = Plasma protein binding in mouse at 100 mg/kg, po administered once daily; type: ADME, organism-based; settings: read-out: PPB (converted)
[13] = Half life in mouse at 100 mg/kg, po administered once daily; settings: in vivo
[14] = Volume of distribution in mouse at 100 mg/kg, po administered once daily; type: ADME, organism-based; settings: in vivo
[15] = AUC in mouse at 100 mg/kg, po administered once daily; type: ADME, organism-based; set-up: dose 100 mg/kg, route po; settings: in vivo
[16] = Oral bioavailability in mouse at 100 mg/kg administered once daily; type: ADME, organism-based; settings: in vivo
[17] = Volume of distribution in human; type: ADME
[18] = Plasma concentration in mouse at 100 mg/kg, po administered once daily; type: ADME, organism-based; settings: in vivo
[19] = Oral bioavailability in mouse at 400 to 600 mg/kg; type: ADME, organism-based; settings: in vivo, dose 400-600 mg/kg
[20] = Cmax in mouse plasma; type: ADME, cell-free
[21] = Cmax in male mouse plasma; type: ADME, cell-free
[22] = Inhibition of tyrosine kinase (unknown origin) in human LNCaP-abl cells
SCH = test: Antiproliferative activity against human SCH cells assessed as reduction in cell viability; type: functional, cell-based
Cytochrome P450 2C19 = Cytochrome P450 2C19 (Homo sapiens, UniProt P33261); test: Inhibition of CYP2C19 (unknown origin); type: ADME
[23] = Inhibition of tyrosine kinase (unknown origin); set-up: species or system Homo sapiens
Cytochrome P450 1A2 = biological target: T2, Cytochrome P450 1A2 (Homo sapiens, UniProt P05177); test: Inhibition of CYP1A2 (unknown origin); type: ADME
T2 sequence (P05177 whole entry): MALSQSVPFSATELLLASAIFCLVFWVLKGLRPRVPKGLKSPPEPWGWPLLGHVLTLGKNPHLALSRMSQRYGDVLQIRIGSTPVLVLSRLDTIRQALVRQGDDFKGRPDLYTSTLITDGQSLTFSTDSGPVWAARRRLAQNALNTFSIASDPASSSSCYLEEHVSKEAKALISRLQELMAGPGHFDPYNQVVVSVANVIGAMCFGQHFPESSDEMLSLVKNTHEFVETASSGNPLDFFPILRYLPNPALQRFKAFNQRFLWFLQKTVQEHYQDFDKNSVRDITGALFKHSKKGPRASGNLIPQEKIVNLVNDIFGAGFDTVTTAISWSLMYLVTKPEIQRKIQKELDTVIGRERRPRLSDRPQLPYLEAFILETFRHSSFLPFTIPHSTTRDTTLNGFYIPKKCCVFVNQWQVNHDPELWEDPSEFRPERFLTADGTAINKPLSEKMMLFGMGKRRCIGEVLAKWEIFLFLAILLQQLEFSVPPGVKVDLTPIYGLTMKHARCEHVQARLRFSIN

Cytochrome P450 2D6 = Cytochrome P450 2D6 (Homo sapiens, UniProt P10635); test: Inhibition of CYP2D6 (unknown origin); type: ADME
[24] = AUC in mouse at 400 to 600 mg/kg, po administered once daily; type: ADME, organism-based; set-up: route po; settings: in vivo, dose 400-600 mg/kg
[25] = Plasma concentration in mouse at 400 to 600 mg/kg, po administered once daily; type: ADME, organism-based; settings: in vivo, dose 400-600 mg/kg
[26] = Cmax in female mouse plasma; type: ADME, cell-free
[27] = Oral bioavailability in mouse; type: ADME, organism-based; settings: in vivo
[28] = Drug excretion in rat feces assessed as cumulative amount of unchanged drug excreted at 10 mg/kg, po; type: ADME, organism-based; settings: faeces, read-out: Drug excretion
[29] = Half life in mouse at 150 to 400 mg/kg, po administered twice daily; type: ADME, organism-based; settings: in vivo, dose 150-400 mg/kg
[30] = Drug absorption in mouse at 400 mg/kg, po; type: ADME, organism-based; settings: in vivo, read-out: Drug absorption
[31] = Oral bioavailability in mouse at 150 to 400 mg/kg administered twice daily; type: ADME, organism-based; settings: in vivo, dose 150-400 mg/kg
[32] = AUC in mouse at 150 to 400 mg/kg, po administered twice daily; type: ADME, organism-based; set-up: route po; settings: in vivo, dose 150-400 mg/kg
[33] = Plasma protein binding in mouse at 150 to 400 mg/kg, po administered twice daily; type: ADME, organism-based; settings: dose 150-400 mg/kg, read-out: PPB (converted)
[34] = mouse, in vivo, po
Description: Volume of distribution in mouse at 150 to 400 mg/kg, po administered twice daily

[35] = Tmax in human; type: ADME
[36] = Plasma concentration in mouse at 150 to 400 mg/kg, po administered twice daily; type: ADME, organism-based; settings: in vivo, dose 150-400 mg/kg
[37] = Half life in human; type: ADME

T1 sequence (P07333 whole entry): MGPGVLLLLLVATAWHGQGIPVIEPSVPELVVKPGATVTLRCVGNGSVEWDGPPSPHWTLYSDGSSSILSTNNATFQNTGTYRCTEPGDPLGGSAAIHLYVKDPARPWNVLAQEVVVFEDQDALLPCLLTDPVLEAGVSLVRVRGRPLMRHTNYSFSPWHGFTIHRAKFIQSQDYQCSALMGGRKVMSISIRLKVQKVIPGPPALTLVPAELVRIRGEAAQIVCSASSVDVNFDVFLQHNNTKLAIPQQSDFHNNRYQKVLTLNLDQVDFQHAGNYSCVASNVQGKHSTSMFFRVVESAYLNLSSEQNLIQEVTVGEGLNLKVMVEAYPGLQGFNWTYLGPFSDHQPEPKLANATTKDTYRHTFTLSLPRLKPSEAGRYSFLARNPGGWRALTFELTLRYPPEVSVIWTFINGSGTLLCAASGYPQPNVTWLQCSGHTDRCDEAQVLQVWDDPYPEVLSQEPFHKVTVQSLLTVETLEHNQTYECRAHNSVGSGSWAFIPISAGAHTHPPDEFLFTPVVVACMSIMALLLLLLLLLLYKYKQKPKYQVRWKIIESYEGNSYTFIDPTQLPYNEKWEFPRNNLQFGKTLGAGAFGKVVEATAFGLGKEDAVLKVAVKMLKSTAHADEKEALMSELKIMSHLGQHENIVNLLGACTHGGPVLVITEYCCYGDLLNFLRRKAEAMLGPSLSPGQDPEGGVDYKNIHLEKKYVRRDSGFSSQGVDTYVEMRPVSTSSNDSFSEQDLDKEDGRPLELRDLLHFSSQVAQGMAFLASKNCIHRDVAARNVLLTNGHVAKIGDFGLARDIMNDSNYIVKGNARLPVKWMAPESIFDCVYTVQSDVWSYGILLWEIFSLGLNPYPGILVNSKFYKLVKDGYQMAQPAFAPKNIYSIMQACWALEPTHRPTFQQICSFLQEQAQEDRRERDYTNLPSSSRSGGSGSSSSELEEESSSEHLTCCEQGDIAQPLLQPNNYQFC
Cytochrome P450 2D6, sequence (P10635 whole entry): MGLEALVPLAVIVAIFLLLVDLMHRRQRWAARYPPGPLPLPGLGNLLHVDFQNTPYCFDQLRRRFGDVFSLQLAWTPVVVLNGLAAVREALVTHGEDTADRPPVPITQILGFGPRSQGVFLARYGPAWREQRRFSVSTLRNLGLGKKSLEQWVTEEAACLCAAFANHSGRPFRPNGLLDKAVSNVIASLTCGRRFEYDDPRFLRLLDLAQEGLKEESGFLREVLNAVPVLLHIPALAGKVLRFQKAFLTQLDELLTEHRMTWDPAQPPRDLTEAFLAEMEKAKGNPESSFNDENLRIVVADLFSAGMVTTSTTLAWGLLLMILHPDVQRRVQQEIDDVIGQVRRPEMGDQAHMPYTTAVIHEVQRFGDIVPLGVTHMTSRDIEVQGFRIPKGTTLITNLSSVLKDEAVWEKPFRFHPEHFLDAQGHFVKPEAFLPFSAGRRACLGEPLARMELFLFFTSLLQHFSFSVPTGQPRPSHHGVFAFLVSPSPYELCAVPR
Cytochrome P450 2C19, sequence (P33261 whole entry): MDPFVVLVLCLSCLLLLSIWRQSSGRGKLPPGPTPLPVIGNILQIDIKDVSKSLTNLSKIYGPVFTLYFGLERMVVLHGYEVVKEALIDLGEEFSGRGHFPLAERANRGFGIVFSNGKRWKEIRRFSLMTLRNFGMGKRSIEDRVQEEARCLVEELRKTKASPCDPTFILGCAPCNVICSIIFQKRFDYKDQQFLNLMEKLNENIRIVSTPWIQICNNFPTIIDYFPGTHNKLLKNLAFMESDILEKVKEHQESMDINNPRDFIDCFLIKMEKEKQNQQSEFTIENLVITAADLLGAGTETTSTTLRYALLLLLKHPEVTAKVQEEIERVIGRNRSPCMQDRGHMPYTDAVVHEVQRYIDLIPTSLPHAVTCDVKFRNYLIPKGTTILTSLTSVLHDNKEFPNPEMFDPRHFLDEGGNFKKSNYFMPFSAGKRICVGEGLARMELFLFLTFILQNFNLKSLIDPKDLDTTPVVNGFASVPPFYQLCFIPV

IC50 (SK-OV-3 [1]): 3600 nM
IC50 [3]: 30 nM
inhibition [4]: 90%
IC50 (OVCAR-3): 45 nM
IC50 (DU-145): 98 nM
SMILES: O=C(Nc1cccc(-n2ccc3c(NC(=O)c4ccccc4)nccc32)c1)c1ccc(N2CCOCC2)c(C(F)(F)F)c1
IC50 (HS27): 300 nM
Activity (IGROV-1): 90%
Activity (SK-OV-3 [2]): 106.2%
Activity (Macrophage): 52%
Activity (T47D): 90%

SMILES: CCN1CCN(Cc2ccc(NC(=O)Nc3ccc(-n4ccc5c(NC(=O)c6ccccc6)nccc54)cc3)cc2C(F)(F)F)CC1
IC50 (HS27): 7800 nM
IC50 [5]: 100 nM

SMILES: Cc1ccc(NC(=O)Nc2cc(F)cc(C(F)(F)F)c2)cc1Nc1cc(=O)[nH]c(N)n1
IC50 [6]: 190 nM

SMILES: COc1ccc(-c2nc3c(Nc4ccc(NC(=O)c5cccc(Cl)c5)cc4)nc(C)nc3o2)cc1
IC50 [7]: 1280 nM

SMILES: Cc1nc(Nc2ccc(NC(=O)c3cccc(Cl)c3)cc2)c2nc(-c3ccc(Cl)cc3)oc2n1
IC50 [7]: 1310 nM

IC50 (OVCAR-5): 1330 nM
SMILES: COc1ccc(-c2nn(-c3ccc(NC(=O)c4ccc(Cl)c(C(F)(F)F)c4)cc3)cc2-c2ccncc2)cc1Cl
Activity [8]: 103.16%

SMILES: COc1cc2cc3c(nc2cc1OC)CCN3Cc1ccc(NC(=O)c2ccc(Cl)c(C(F)(F)F)c2)cc1
Activity (MOLT-4): 43.19%
Activity (MCF7): 84.97%
Activity (MDA-MB-468): 87.13%

SMILES: Cc1ccc(NC(=O)Nc2ccc(Cl)nc2)cc1Nc1cc(=O)[nH]c(N)n1
IC50 [6]: 190 nM

SMILES: O=C(Nc1ccc(-n2ccc3c(NC(=O)c4ccccc4)ncnc32)cc1)Nc1cccc(Cl)c1Cl
IC50 [9]: 3670 nM
Activity [10]: 109.18%
TGI [11]: 1800 nM

SMILES: Cc1nc(Nc2ncc(C(=O)Nc3c(C)cccc3Cl)s2)cc(N2CCN(CCO)CC2)n1.O [DASATINIB]
fraction unbound [12]: 0.04
half-life [13]: 3 h
Vd [14]: 2.052 L
AUC [15]: 48.8 ng·h/mL
bioavailability [16]: 14%
Vd [17]: 2.05 L
Cp [18]: 129 ng/mL

bioavailability [19]: 98.3%
Cmax [20]: 1.9 ng/mL
Cmax [21]: 921 ng/mL
IC50 [22]: 188 nM
inhibition (INH) (Cytochrome P450 2C19): 10%
IC50 [23]: 30 nM
inhibition (INH) (Cytochrome P450 1A2): 10%
inhibition (INH) (Cytochrome P450 2D6): 10%
AUC [24]: 24800 ng·h/mL
Cp [25]: 3.7 ng/mL
Cmax [26]: 1080 ng/mL
bioavailability [27]: 98.3%
SMILES: Cc1ccc(NC(=O)c2ccc(CN3CCN(C)CC3)cc2)cc1Nc1nccc(-c2cccnc2)n1 [IMATINIB]
IC50 (SCH): 4700 nM

dose excreted [28]: 69%
half-life [29]: 13 h
IC50 [23]: 188 nM
Fa [30]: 35%
bioavailability [31]: 25%
AUC [32]: 11.9 ng·h/mL
fraction unbound [33]: 0.02
Vd [34]: 0.55 L/kg
Tmax [35]: 3 h
Cp [36]: 445 ng/mL
half-life [37]: 17 h
SMILES: Cc1cn(-c2cc(NC(=O)c3ccc(C)c(Nc4nccc(-c5cccnc5)n4)c3)cc(C(F)(F)F)c2)cn1 [NILOTINIB]
IC50 (SCH): 14600 nM

SMILES: CNC(=O)c1cc(Oc2ccc(NC(=O)Nc3ccc(Cl)c(C(F)(F)F)c3)cc2)ccn1 [SORAFENIB]
IC50 (HS27): 7800 nM
IC50 [5]: 95 nM
